According to US7960369B2, “Receptor function regulator” (Takeda Pharmaceutical Company Limited, priority 2002, dated 2011):

Tests used:
Type in all cases: cell-based
human-derived GPR40 = target: T1, human-derived GPR40 (Homo sapiens, UniProt O14842); assay: Reactivity of fatty acid to human-derived GPR40, intracellular calcium by FLIPR in transfected CHO-K1 cells; details: for response (increase in intracellular calcium concentration) of CHO-K1 cell expressing the GPR40 receptor: added at 10^−5M-10^−6M, FLIPR, control-vector cells showed no response; for activity in intracellular calcium ion mobilization assay using CHO cell expressing GPR40 (GPR40 agonistic activity): as stated in Experimental Example 6
T1 construct: expressed in transfected cells; host or cells: CHO-K1, transient transfection with lipofectamine
Protocol: Unless specifically indicated, CHO-K1 cell line was cultured using Ham's F-12 medium (Invitrogen) containing 10% fetal calf serum (Invitrogen). The day before transfection, 4.5×10^5 per 10 cm^2 of cells were seeded, and incubated at 37° C. for not less than 15 hrs in a CO2 incubator adjusted to 5% CO2 concentration. The transfection was performed using a lipofectamine reagent (Invitrogen) and according to the reagent attached method. When a 6-well plate was used for a culture plate, transfection was performed in the following manner. First two 1.5 ml volume tubes were prepared, and 100 μl of Opti-MEM-I medium (Invitrogen) was dispensed. Then, […] of an expression vector was added to one tube and 6 μl of a lipofectamine reagent was added to the other tube. They were mixed and stood still at room temperature for 20 min. A mixed solution for transfection containing this solution and Opti-MEM-I medium (800 μl) was added to CHO-K1 cell previously washed with Opti-MEM-I medium, and incubated in a CO2 incubator for 6 hrs. The incubated cells were rinsed with PBS (Invitrogen), detached with 0.05% trypsin-EDTA solution (Invitrogen), recovered by centrifugation. The obtained cells were counted, diluted such that 5×10^4 cells were contained per 200 μl of the medium, dispensed to black walled 96-well plate (Costar) at 200 μl per well, incubated overnight in a CO2 incubator. Various test samples were added to CHO-K1 cells transiently expressing the receptor by the above-mentioned transfection step, and changes in the intracellular calcium concentration then was measured using FLIPR (Molecular Device). For measurement of changes in intracellular calcium concentration by FLIPR, the following pretreatment was applied. First, an assay buffer for adding fluorescence dye Fluo-3AM (DOJIN) to the cell, or washing the cell immediately before FLIPR assay was prepared. To a solution (hereinafter HBSS/HEPES solution) obtained by adding 20 ml of 1M HEPES (pH 7.4) (DOJIN) to 1000 ml of HBSS (Invitrogen) was added a solution (10 ml) obtained by dissolving probenecid (710 mg, Sigma) in 1N NaOH (5 ml) and adding and mixing with HBSS/HEPES solution (5 ml) and the obtained solution was used as an assay buffer. Then, Fluo-3AM (50 μg) was dissolved in 21 μl of DMSO (DOJIN), and an equal amount of 20% pluronic acid (Molecular Probes) was added. The mixture was added to an assay buffer (10.6 ml) supplemented with 105 μl of fetal calf serum to give a fluorescence dye solution. The medium of the CHO-KL cell after transfection treatment was removed, a fluorescence dye solution was immediately dispensed at 100 μl per well and incubated in a CO2 incubator for 1 hr to incorporate the fluorescence dye into the cell. The incubated cells were washed with the above-mentioned assay buffer and set on FLIPR. The test sample to be added to receptor expressing CHO-KL cell was prepared using the assay buffer and simultaneously set on FLIPR. After the above-mentioned pretreatment, changes in the intracellular calcium concentration after addition of various test samples were measured by FLIPR.

human GPR40 = target: T2, human GPR40 (Homo sapiens, UniProt O14842); assay: Effect of regulation of GPR40 receptor function (agonistic effect), intracellular calcium by FLIPR; details: CHO cell line (No. 104) expressing human GPR40, fluorescence intensity at 30 sec after start of reaction
T2 construct: expressed in transfected cells; host or cells: CHO cell line CHO-hGPR40 No. 104 (pAKKO-111 vector)
Protocol: CHO cell line (No. 104) made to express human GPR40 was diluted such that 3×10^4 cells/100 μL were contained, dispensed to a black walled 96-well plate (Costar) at 100 μL per well, and incubated overnight in a CO2 incubator. The changes in the intracellular calcium concentration were measured using FLIPR (Molecular Device). The method is described in the following.
Fluo-3AM (DOJIN) (50 μg) was dissolved in 21 μl DMSO (DOJIN), and an equal amount of 20% pluronic acid (Molecular Probes) was added and mixed, and the mixture was added to 10.6 ml of an assay buffer [prepared by adding 20 ml of 1M HEPES (pH 7.4) (DOJIN) to 1 L of HBSS (Invitrogen), and adding a mixed solution (10 ml) obtained by dissolving probenecid (Sigma) (710 mg) in 1N NaOH (5 ml) and adding and mixing with the above-mentioned HBSS/HEPES solution (5 ml)] supplemented with 105 μl of fetal calf serum to give a fluorescence dye solution. The medium in the cell plate was removed, a fluorescence dye solution was immediately dispensed at 100 μl per well, and incubated in a CO2 incubator for 1 hr to incorporate fluorescence dye into the cell. The incubated cells were washed with the above-mentioned assay buffer. The compound to be added to the cell was diluted with the assay buffer to each concentration and dispensed to a test sample plate. After the above-mentioned pretreatment, changes in the intracellular calcium concentration after addition of the compound was measured by FLIPR, and the agonistic effect was examined. EC50 value was calculated from a dose response curve based on the changes in the fluorescence intensity value at 30 sec after the start of the reaction.

[1] = system: mouse pancreatic β cell line MIN6; assay: Promotion of insulin secretion from MIN6 (insulin immunoassay); details: MIN6, KRBH with 22 mM glucose, 90 min
Protocol: (§1) Mouse pancreatic β cell line MIN6 cultured in a flask was detached with PBS containing 2.5 mM EDTA, and seeded and incubated in a 96 well plate for 2 days. The medium used was obtained by adding 15% fetal bovine serum (ThermoTrace), […] 2-mercaptoethanol (Invitrogen), 20 mM HEPES pH 7.3, 100 U/ml penicillin and 100 μg/ml streptomycin to Dulbecco's Modified Eagle Medium (DMEM, Invitrogen) containing 4.5 g/l of glucose. The cells were washed twice with modified Krebs-Ringer bicarbonate buffer (KRBH, 116 mM NaCl, 4.7 mM KCl, 1.2 mM KH2PO4, 1.2 mM MgSO4, 2.5 mM CaCl2, 25 mM NaHCO3, 24 mM HEPES pH 7.3) and preincubated at 37° C. under 5% CO2 conditions for 30 min. Fatty acid diluted and prepared with a buffer obtained by adding 22 mM glucose to the above-mentioned KRBH was added to the cell after preincubation and the cells were incubated at 37° C. under 5% CO2 conditions for 90 min. After incubation, the cell supernatant was recovered and cryopreserved. The insulin content of the supernatant was measured using a commercially available insulin immunoassay kit (Amersham Pharmacia Biotech).
as §1, with “(KBH,” for “(KRBH,”, “The compound” for “Fatty acid”

T1 sequence (O14842 whole entry): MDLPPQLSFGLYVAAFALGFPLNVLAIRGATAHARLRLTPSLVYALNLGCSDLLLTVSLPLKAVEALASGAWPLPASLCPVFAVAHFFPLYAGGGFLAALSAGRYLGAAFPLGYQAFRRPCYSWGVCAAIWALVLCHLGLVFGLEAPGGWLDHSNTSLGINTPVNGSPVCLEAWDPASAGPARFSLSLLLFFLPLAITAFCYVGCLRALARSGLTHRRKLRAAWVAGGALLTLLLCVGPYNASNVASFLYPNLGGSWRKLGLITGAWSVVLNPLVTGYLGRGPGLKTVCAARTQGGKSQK
T2 sequence (O14842 whole entry): as above

| response (increase in intracellular calcium concentration) of CHO-K1 cell expressing the GPR40 receptor (human-derived GPR40) | EC50 (human GPR40) [nM] | Compound | other results |
| --- | --- | --- | --- |
| specifically responds |  | CCCCCCCCC#CCC#CCC#CCCCC(=O)O [5.8.11-eicosatriynoic acid] |  |
| specifically responds |  | CCCCCC#CCC#CCC#CCC#CCCCC(=O)O [5.8.11.14-eicosatetraynoic acid] |  |
|  | 170 | O=C(O)CCc1ccc(OC2CCCc3ccccc32)cc1 (centres unmarked) [Example 2, 4-[(1,2,3,4-tetrahydronaphthalen-1-yl)oxy]benzenepropanoic acid] |  |
|  | 160 | O=C(O)CCc1ccc(OCc2ccc(OCc3ccccc3)cc2)cc1 [Example 6, 4-[[4-(phenylmethoxy)phenyl]methoxy]benzenepropanoic-acid] |  |
|  | 130 | O=C(O)CCc1ccc(OCc2ccc(-c3ccccc3)cc2)cc1 [Example 7, 4-([1,1′-biphenyl]-4-ylmethoxy)benzenepropanoic acid] |  |
|  | 320 | O=C(O)CCc1ccc(OCc2ccccc2)cc1 [Reference Example 2, 4-(phenylmethoxy)benzenepropanoic acid] |  |
|  | 460 | O=C(O)CCc1ccc(OCCCc2ccccc2)cc1 [Reference Example 6, 4-(3-phenylpropoxy)benzenepropanoic acid] |  |
|  | 1200 | CN(Cc1ccc(C(=O)Nc2ccc(CCC(=O)O)cc2)cc1)c1nc(-c2ccccc2)cs1 [Reference Example 15, 4-[[4-[[methyl(4-phenyl-2-thiazolyl)amino]methyl]benzoyl]amino]benzenepropanoic acid] |  |
| specifically responds |  | CCCCC/C=C\C/C=C\C/C=C\C/C=C\CCCCCC(=O)O [adrenic acid] |  |
| specifically responds |  | CCCCC/C=C\C/C=C\C/C=C\C/C=C\CCCC(=O)O [arachidonic acid] | activity in intracellular calcium ion mobilization assay using CHO cell expressing GPR40 (GPR40 agonistic activity) (human-derived GPR40): remarkable activity; insulin secretion enhancing activity [1]: significant insulin secretion enhancing activity |
|  |  | CCCC(=O)O [butyric acid] | activity in intracellular calcium ion mobilization assay using CHO cell expressing GPR40 (GPR40 agonistic activity) (human-derived GPR40): no GPR40 agonistic activity; insulin secretion enhancing activity [1]: did not show a significant insulin secretion enhancing activity |
| specifically responds |  | CCCCCCCCCCCC(=O)O [lauric acid] |  |
|  |  | CCCCC/C=C\C/C=C\CCCCCCCC(=O)OC [methyl linolate] | activity in intracellular calcium ion mobilization assay using CHO cell expressing GPR40 (GPR40 agonistic activity) (human-derived GPR40): no GPR40 agonistic activity; insulin secretion enhancing activity [1]: did not show a significant insulin secretion enhancing activity |
|  |  | CC/C=C\C/C=C\C/C=C\CCCCCCCC(=O)O [α-linolenic acid] | activity in intracellular calcium ion mobilization assay using CHO cell expressing GPR40 (GPR40 agonistic activity) (human-derived GPR40): remarkable activity; insulin secretion enhancing activity [1]: significant insulin secretion enhancing activity |

| Compound | response (increase in intracellular calcium concentration) of CHO-K1 cell expressing the GPR40 receptor (human-derived GPR40) | EC50 (human GPR40) [nM] | other results |
| --- | --- | --- | --- |
| CC(C)=CCCC(C)=CCCC(C)=CC(=O)O [farnesoic acid] | specifically responds |  |  |
| docosatrienoic acid | specifically responds |  |  |
| eicosadienoic acid | specifically responds |  |  |
| eicosatrienoic acid | specifically responds |  |  |
